In experiment [1] the test system is NCI-H292 lung cancer cells. The experiment is described as follows: FDA drug screening, complete media vs cholesterol-free media with simvastatin (TABLE 2). Format: cell-based, human.
The test system of experiment [2] is NCI-H292 lung cancer cells. As to the kind of experiment: FDA drug screening, complete media vs cholesterol-free media without statin (TABLE 1). Format: cell-based, human.
[3] abbreviates: NCI-H292 cells, drug in cholesterol-free media with simvastatin 0.04 μM.
The mark [4] stands for this setting: NCI-H292 cells, drug in complete media.
The mark [5] stands for this setting: complete media vs cholesterol-free media + simvastatin (0.04 μM), >0 enhanced anti-cancer activity, about 0 neutral, <0 antagonist.
Where [6] appears, read: Complete minus Cholesterol-free, >0 enhanced anti-cancer activity, about 0 neutral, <0 antagonist.
Setting [7] is: NCI-H292 cells, cholesterol-free media without statin.
Setting [8] is: NCI-H292 cells, FDA drug library screen, cholesterol-free media with simvastatin 0.04 μM.
Setting [9] is: NCI-H292 cells, FDA drug library screen, complete media.
The mark [10] stands for this setting: complete media minus cholesterol-free media + simvastatin, >0 enhanced anti-cancer activity, about 0 neutral, <0 antagonist.
[11] abbreviates: NCI-H292 cells, cholesterol-free media without statin, FDA drug library screen.
Setting [12] is: NCI-H292 cells, complete media, FDA drug library screen.
Where [13] appears, read: complete vs cholesterol-free media, greater than 0 enhanced anti-cancer activity, about 0 neutral, below 0 antagonists.
The mark [14] stands for this setting: NCI-H292 cells, FDA library drug in cholesterol-free media with simvastatin 0.04 μM.
The mark [15] stands for this setting: NCI-H292 cells, FDA library drug in complete media.
Setting [16] is: Complete minus Cholesterol-free, greater than 0 enhanced anti-cancer activity, about 0 neutral, below 0 antagonist.
The mark [17] stands for this setting: NCI-H292 cells, FDA drug library screen, cholesterol-free media without statin.
Setting [18] is: complete vs cholesterol-free media, >0 enhanced anti-cancer activity, about 0 neutral, <0 antagonist.

Where a name gives a salt, the structure may show the parent alone. Read-outs that look alike come from different tables or passages of the source.

Here are results for 19 compounds from patent publication US20250144067A1, “PERSONALIZED STARVATION THERAPY FOR CANCER” (Faeth Therapeutics, Inc., priority 2021, published 2025).

Regarding `CC(=O)c1c(C)c2cnc(Nc3ccc(N4CCNCC4)cn3)nc2n(C2CCCC2)c1=O` [Palbociclib (hydrochloride)], in experiment [1] (setting [3]), the “Cholesterol-free media + simvastatin (0.04 μM)” value worked out at 1.037. The “Complete Media” value in experiment [1] (setting [4]) turned out to be 0.8185. For the same compound, the Difference in experiment [1] (setting [5]) is −0.22; in experiment [2] (setting [6]), −0.26. The compound also registered a Cholesterol-free in experiment [2] (setting [7]) of 1.289. Besides, in experiment [2] (NCI-H292 cells, complete media), the Complete worked out at 1.028.
Regarding `CN(CCOc1ccc(CC2SC(=O)NC2=O)cc1)c1ccccn1` (centres unmarked) [Rosiglitazone], the “Cholesterol-free media + simvastatin (0.04 μM)” value in experiment [1] (setting [8]) was 1.707. In experiment [1] (setting [9]), the “Complete Media” value stood at 1.955. Further, the Difference in experiment [1] (setting [10]) was 0.25; in experiment [2] (setting [6]), −0.21. This compound also showed a Cholesterol-free in experiment [2] (setting [7]) of 1.222. In experiment [2] (NCI-H292 cells, complete media), this compound came in with a Complete of 1.017.
Turning to `NC(=O)c1cn(Cc2c(F)cccc2F)nn1` [Rufinamide], in experiment [1] (setting [8]), the “Cholesterol-free media + simvastatin (0.04 μM)” value is 0.995. For the same compound, in experiment [1] (setting [9]), the “Complete Media” value worked out at 0.8999. Also, the Difference is −0.10 in experiment [1] (setting [5]) and 0.00 in experiment [2] (setting [6]). In experiment [2] (setting [11]), this compound yielded a Cholesterol-free of 0.9822. Also, the Complete in experiment [2] (setting [12]) came out at 0.9785.
Regarding `O=C(C[S+]([O-])Cc1ccco1)NC/C=C\COc1cc(CN2CCCCC2)ccn1` (centres unmarked) [Lafutidine], the “Cholesterol-free media + simvastatin (0.04 μM)” value in experiment [1] (NCI-H292 cells, cholesterol-free media with simvastatin 0.04 μM, cell growth value in FDA drug screen) turned out to be 1.203. Moreover, the “Complete Media” value in experiment [1] (NCI-H292 cells, complete media, cell growth value in FDA drug screen) stood at 1.221. In addition, the Difference is 0.02 in experiment [1] (setting [10]) and 0.01 in experiment [2] (setting [6]). Further, in experiment [2] (setting [11]), the Cholesterol-free worked out at 1.364. The same compound displayed a Complete in experiment [2] (setting [12]) of 1.371.
Regarding `CC(=O)N1CCN(c2ccc(OCC3COC(Cn4ccnc4)(c4ccc(Cl)cc4Cl)O3)cc2)CC1` (centres unmarked) [Ketoconazole], the “Cholesterol-free media + simvastatin (0.04 μM)” value in experiment [1] (setting [8]) is 0.2012. For the same compound, the “Complete Media” value in experiment [1] (setting [9]) is recorded as 0.801. Further, the Difference is reported as 0.60 in experiment [1] (setting [10]) and −0.39 in experiment [2] (setting [13]). In experiment [2] (setting [7]), this compound gave a Cholesterol-free of 1.003. Also, the Complete in experiment [2] (NCI-H292 cells, complete media) stood at 0.6148.
Turning to Pyrantel (tartrate), in experiment [1] (setting [14]), the “Cholesterol-free media + simvastatin (0.04 μM)” value is 1.712. Moreover, in experiment [1] (setting [15]), the “Complete Media” value came out at 1.209. In addition, the Difference in experiment [1] (setting [5]) is −0.50; in experiment [2] (setting [16]), −0.17. Moreover, the Complete in experiment [2] (setting [9]) came out at 0.9815.
Turning to `C[n+]1ccccc1C=NO.[I-]` [Pralidoxime (iodide)], the “Cholesterol-free media + simvastatin (0.04 μM)” value in experiment [1] (setting [8]) was 0.9948. Moreover, the “Complete Media” value in experiment [1] (setting [9]) came to 0.8823. In addition, the Difference in experiment [1] (complete media vs cholesterol-free media + simvastatin (0.04 μM), […]) is on record as −0.11; in experiment [2] (Complete minus Cholesterol-free, […]), −0.07. For the same compound, the Cholesterol-free in experiment [2] (setting [17]) is recorded as 1.049. The same compound showed a Complete in experiment [2] (setting [9]) of 0.9757.
Turning to `O=C(O)Cc1ccccc1Nc1c(Cl)cccc1Cl` [Diclofenac], the “Cholesterol-free media + simvastatin (0.04 μM)” value in experiment [1] (setting [14]) turned out to be 1.089. Moreover, in experiment [1] (setting [15]), the “Complete Media” value is 0.821. The values for the Difference in experiment [1] (setting [5]) and in experiment [2] (setting [6]) were −0.27 and −0.25, respectively. Moreover, the Cholesterol-free in experiment [2] (setting [7]) worked out at 1.167. Further, the Complete in experiment [2] (NCI-H292 cells, complete media) is given as 0.917.
As for `C[C@]12CCC(=O)C=C1C=C[C@@H]1[C@@H]2CC[C@@]2(C)[C@H]1CC[C@@]21CCC(=O)O1` [Canrenone], the “Cholesterol-free media + simvastatin (0.04 μM)” value in experiment [1] (setting [8]) turned out to be 1.098. Also, the “Complete Media” value in experiment [1] (setting [9]) came to 1.452. The results for the Difference in experiment [1] (setting [10]) and in experiment [2] (setting [6]) were 0.35 and −0.20, respectively. Moreover, in experiment [2] (setting [7]), the Cholesterol-free came to 1.047. In experiment [2] (NCI-H292 cells, complete media), this compound returned a Complete of 0.8458.
Regarding `NC(=O)N[C@@H](CCC(=O)O)C(=O)O` [Carglumic Acid], the “Cholesterol-free media + simvastatin (0.04 μM)” value in experiment [1] (setting [8]) is reported as 0.9383. For the same compound, in experiment [1] (setting [9]), the “Complete Media” value came to 1.207. The Difference is recorded as 0.27 in experiment [1] (setting [10]) and −0.10 in experiment [2] (setting [16]). The Cholesterol-free in experiment [2] (setting [17]) is 1.036. This compound registered a Complete in experiment [2] (setting [9]) of 0.9389.
With `Cc1c(OCC(F)(F)F)ccnc1C[S+]([O-])c1nc2ccccc2[nH]1` (centres unmarked) [Lansoprazole], the “Cholesterol-free media + simvastatin (0.04 μM)” value in experiment [1] (setting [14]) is recorded as 1.103. The “Complete Media” value in experiment [1] (setting [15]) was found to be 0.6471. Moreover, the Difference in experiment [1] (setting [5]) is given as −0.46; in experiment [2] (setting [13]), −0.38. The same compound yielded a Cholesterol-free in experiment [2] (setting [7]) of 1.34. This compound also returned a Complete in experiment [2] (NCI-H292 cells, complete media) of 0.9564.
For `C[S+](CC[C@H](N)C(=O)O)C[C@H]1O[C@@H](n2cnc3c(N)ncnc32)[C@H](O)[C@@H]1O.Cc1ccc(S(=O)(=O)[O-])cc1` (stereo partly drawn) [S-Adenosyl-L-methionine (tosylate)], the “Cholesterol-free media + simvastatin (0.04 μM)” value in experiment [1] (setting [8]) came out at 1.239. Moreover, the “Complete Media” value in experiment [1] (setting [9]) is 1.842. Further, the values for the Difference in experiment [1] (setting [10]) and in experiment [2] (setting [18]) were 0.60 and 0.19, respectively. For the same compound, the Cholesterol-free in experiment [2] (setting [11]) was 0.8583. The compound further came in with a Complete in experiment [2] (setting [12]) of 1.043.
For the compound `Cc1cnc(Nc2ccc(OCCN3CCCC3)cc2)nc1Nc1cccc(S(=O)(=O)NC(C)(C)C)c1` [Fedratinib (hydrochloride hydrate)], the “Cholesterol-free media + simvastatin (0.04 μM)” value in experiment [1] (setting [3]) worked out at 0.6402. In addition, the “Complete Media” value in experiment [1] (setting [4]) came to 0.3774. Besides, the Difference in experiment [1] (setting [5]) is reported as −0.26; in experiment [2] (setting [16]), −0.13. The compound also had a Cholesterol-free in experiment [2] (setting [17]) of 0.469. In experiment [2] (setting [9]), this compound gave a Complete of 0.341.
As for `C[C@@H]1O[C@@H]1P(=O)(O)O` [Fosfomycin (sodium)], in experiment [1] (setting [8]), the “Cholesterol-free media + simvastatin (0.04 μM)” value turned out to be 1.163. Also, the “Complete Media” value in experiment [1] (setting [9]) worked out at 1.004. The Difference in experiment [1] (setting [5]) is on record as −0.16; in experiment [2] (setting [6]), −0.22. The compound also gave a Cholesterol-free in experiment [2] (setting [7]) of 1.096. The same compound gave a Complete in experiment [2] (NCI-H292 cells, complete media) of 0.8782.
For `NC(=O)CN1CCCC1=O` [Piracetam], in experiment [1] (setting [8]), the “Cholesterol-free media + simvastatin (0.04 μM)” value was found to be 1.178. In addition, the “Complete Media” value in experiment [1] (setting [9]) stood at 1.066. For the same compound, the Difference in experiment [1] (setting [5]) is reported as −0.11; in experiment [2] (Complete minus Cholesterol-free, greater than 0 enhanced anti-cancer activity, about 0 neutral, below 0 antagonists), −0.50. The compound further yielded a Cholesterol-free in experiment [2] (NCI-H292 cells in cholesterol-free media without statin) of 1.403. Moreover, the Complete in experiment [2] (NCI-H292 cells in complete media) is 0.9062.
Take `O=C(Nc1ccc(O)cc1)c1ccccc1O` [Osalmid]: the “Cholesterol-free media + simvastatin (0.04 μM)” value in experiment [1] (NCI-H292 cells, cholesterol-free media with simvastatin 0.04 μM, FDA drug library screen (TABLE 2)) amounted to 0.9033. Also, in experiment [1] (NCI-H292 cells, complete media, FDA drug library screen (TABLE 2)), the “Complete Media” value turned out to be 0.8951. The Difference is −0.01 in experiment [1] (complete media minus cholesterol-free media + simvastatin (0.04 μM), >0 enhanced anti-cancer activity, about 0 neutral, <0 antagonist) and 0.22 in experiment [2] (setting [18]). In addition, the Cholesterol-free in experiment [2] (setting [11]) was determined as 1.209. In experiment [2] (setting [12]), this compound had a Complete of 1.432.
For Guanabenz (Acetate), in experiment [1], the “Cholesterol-free media + simvastatin (0.04 μM)” value turned out to be 1.185, the “Complete Media” value is reported as 0.9697 and the Difference is listed as −0.22. In experiment [2], this compound yielded a Cholesterol-free of 0.8753, a Complete of 0.6073 and a Difference of −0.27.
For `CCCc1c2oc(C(=O)O)cc(=O)c2cc2c(=O)cc(C(=O)O)n(CC)c12` [Nedocromil], the “Cholesterol-free media + simvastatin (0.04 μM)” value in experiment [1] (setting [14]) came to 1.951. The “Complete Media” value in experiment [1] (setting [15]) came out at 1.336. The Difference in experiment [1] (setting [5]) is on record as −0.61; in experiment [2] (setting [18]) it was 0.22. Further, the Cholesterol-free in experiment [2] (setting [11]) worked out at 1.678. Moreover, the Complete in experiment [2] (setting [12]) was determined as 1.893.
Take `O=c1[nH]cnc2c1ncn2[C@@H]1O[C@H](CO)[C@@H](O)[C@H]1O` [Inosine]: the “Cholesterol-free media + simvastatin (0.04 μM)” value in experiment [1] (setting [8]) is 0.924. Besides, the “Complete Media” value in experiment [1] (setting [9]) is 1.085. The Difference in experiment [1] (setting [10]) turned out to be 0.16; in experiment [2] (setting [6]), 0.02. Besides, the Cholesterol-free in experiment [2] (setting [11]) is given as 0.9203. In experiment [2] (setting [12]), the Complete came to 0.941.
